Results published in patent publication US9771563B2, “Chemical approaches for generation of induced pluripotent stem cells” (The Scripps Research Institute, priority 2008, dated 2017).

What was measured:
[1] = test system: primary OG2 neural progenitor cells; test: iPS cell induction from neural progenitor cells after retroviral transduction; type: cell-based, mouse
Protocol: The reporter neural progenitor cells were generated using a well established protocol by differentiating the Oct4-GiP mESCs grown in monolayer on gelatin in a chemically defined medium/CDM condition in the absence of serum and other growth factors/cytokines at low cell density for eight days, followed by neurophere formation and subsequent serial passaging in single cells in neural cell expansion media supplemented with 10 ng/ml of bFGF and EGF in monolayer for over six passages/24 days. The resulting neural progenitor cells were homogenous by cell morphology and neural marker expression, and were confirmed to be GFP negative and puromycin sensitive. Such neural progenitor cells plated in monolayer in conventional mESC growth media were transduced with combinations of four, three, or two of the four factors, followed by treating the transduced cells with individual small molecules from a small known drug collection in a typical 6-well format. The compound treatment and culture were continued for additional ten days before puromycin was added. The number of green and puro-resistant colonies was counted at day 14. In comparison to the only four-gene transduced neural cells as the positive control, compound conditions that generated more green colonies than the corresponding gene-only conditions were picked as primary hits. To further confirm these primary hit conditions, we chose to use a late passage of mouse CNS neural progenitor cells (Do, J. T. et al., Stem Cells 25, 1013-1020 (2007)) that were derived from fetal brain of OG2^+/−/ROSA26^+/− transgenic mice (which contain an Oct4-GFP reporter) and expanded in monolayer under the same neural CDM condition as the above with 10 ng/ml of bFGF and EGF. Such cells truly from a non-pluripotent tissue would be devoid of concerns of any contaminating ES cell in the above screening system, which is highly unlikely with all appropriate controls. Similar culture conditions and reprogramming assays were performed using the OG2 neural progenitor cells except that puromycin was not used and green colonies were picked out and characterized by staining of Nanog, SSEA1 and ALP.
mESC-derived or primary OG2 mouse neural progenitor cells were plated into Matrigel (1:50, BD Biosciences) coated 6-well plates at 3.5×10^4 cells/well in the neural progenitor cell expansion media. After one day these cells were transduced with retrovirus for overnight, and the medium was changed into the mESC growth media [DMEM, 5% FBS, 10% KSR, 1× non-essential amino acids (Gibco), 2 mM L-glutamine (Gibco), 0.1 mM β-mercaptoethanol (Gibco) and 10^3 unit/ml LIF (Chemicon)] with or without BIX01294 (0.5-1 μM). GFP-positive iPS cell colonies appeared after 9-14 days, and were picked out and expanded on MEF feeder cells with the mESC growth media.

mES R1 cells = test: Proliferation assay; type: cell-based, mouse; conditions: 2 μM BayK, 1 μM BIX; 15, 24, 48 hours; vs DMSO
Protocol: mES R1 cells were plated onto gelatin-coated 6-well plates at a density of 2×10^5 cells/well in complete mES cell media. Upon cell attachment, app. 12 hours, the cells were treated either with DMSO, 1 μM BIX, 2 μM BayK, and a combination of both, in triplicate. At 15, 24 and 48 hours, the cells were detached using trypsin, and counted using a hemocytometer. Trypan blue (Sigma-Aldrich, St. Louis, Mo.) was used for dead cell exclusion.

[2] = test system: mouse embryonic fibroblasts (129 or OG2 MEFs); test: Screen for iPSC generation from MEFs transduced with Oct4/Klf4 (OK); type: cell-based
Protocol: Unmodified MEFs derived from E13-14 embryos of the 129 mice were used for the initial screen. MEFs were plated on Matrigel at 3.5×10^4 cells/well of a 6-well plate and transduced with OK (retroviral vectors expressing Oct4 and Klf4) alone. Within 14-21 days, treated cells were assessed for the appearance of colonies that had the characteristic embryonic stem cell (ESC) colony morphology and were positive for the pluripotency marker alkaline phosphatase (ALP). Such OK-transduced cells generated only a few small non-compact colonies, which were weakly positive for ALP expression. These colonies initially appeared within 21 days after viral transduction and were difficult to expand. Therefore, such assay system offered a clean background for the identification of small molecules having desirable reprogramming inducing activity. Using this system, compounds from a library of around 2000 known small molecules (see Experimental Procedures below) were screened and were identified as hits when they induced the appearance of ESC colonies that were strongly positive for ALP within 14-21 days after treatment. This image-based method provided a more accurate assessment of reprogramming as compared to homogenous reporter-based assay. BIX appeared to have the strongest effect with reproducible induction of more than 1-2 compact ESC-like colonies with high ALP expression. We observed that when MEFs were treated with BIX after OK viral transduction, compact colonies with strong ALP expression could be readily detected within approximately 14-21 days. These cells were also positive for Nanog, Oct4 and SSEA-1 expression. […] However, the reprogramming efficiency in MEFs transduced with OK and treated with BIX was still low, about 2 colonies/3.5×10^4 cells, in comparison to the four factor-induced reprogramming of MEFs or the OK/BIX NPC reprogramming (Shi, Y. et al., Cell Stem Cell, 2:525-528 (2008)). Therefore, we conducted a second screen using a similar protocol, but where BIX was added to the basal media after OK viral transduction. This provided a more permissive platform to identify new small molecules that could further improve reprogramming efficiency. More importantly, this second screen could facilitate discovery of small molecules that impact reprogramming in a more specific manner, for example by acting on signal transduction pathways rather than on histone or DNA modifying enzymes. In this second screen, we again assayed the library of around 2000 known small molecules (see Experimental Procedures), and confirmed two compounds that were able to act in a synergistic manner with BIX to improve reprogramming based on the criteria of the screen. […] Therefore, RG108 was not pursued further for this study. Instead, we focused our phenotypic and functional characterization on another small molecule that was identified in the second screen, BayK, an L-calcium channel agonist. […] Therefore, BayK might play a more specific role in the reprogramming process. When 129 MEFs were transduced with empty retrovirus (negative control); no colonies observed. When 129 MEFs were transduced with OK without small molecules; few small flattened colonies with weak ALP expression present. […] When OK-transduced MEFs were treated with BIX in combination with BayK, a significant increase in the number of ALP^+ colonies that closely resemble the mESC morphology could be observed (˜7 colonies) as compared to OK-transduced MEFs treated with BIX alone (˜2 colonies).
Primary 12952/SvPasCrlf (primary screen) or ROSA26^+/−/OG2^+/− (secondary screen) MEFs were plated onto Matrigel (1:50; BD Biosciences, Bedford, Mass.) coated dishes at a density of 3.5×10^4 cells per well of a 6-well plate. Twenty-four hours later, these cells were transduced overnight with defined retroviruses at 37° C., 5% CO2. […] (all products were from Invitrogen, Carlsbad, Calif., except where mentioned). […]

`COc1cc2nc(N3CCCN(C)CC3)nc(NC3CCN(Cc4ccccc4)CC3)c2cc1OC` [BIX01294] was tested, and the “appearance of GFP+ iPS cell colonies after transduction and treatment” value ([1]; OG2 neural progenitor cells transduced with Oct4/Klf4 retroviruses) was 12 days, the kinetics of reprogramming ([1]; Oct4/Klf4 viral transduction, BIX01294 treatment) was “didn't significantly shorten the kinetics of reprogramming” and the reprogramming efficiency ([1]; Oct4/Klf4 viral transduction, BIX01294 treatment (0.5-1 μM)) was “significantly improve the reprogramming efficiency to or higher than the level of using viral transduction of all four factors”. For the same molecule, the “generation of iPS cells in the absence of Oct4 expression” value ([1]; viral transduction of Klf4, Sox2 and cMyc with simultaneous treatment) was “can also generate iPS cells”, the “proliferation of mES cells (cell number)” value (mES R1 cells) was “does not increase the proliferation of mES cells” and the “reprogramming efficiency (GFP+ colonies)” value ([2]; OG2 MEFs transduced with OK, FIG. 3) was 2.5±0.7 colonies per 3.5×10^4 cells. The “number of ALP+ colonies that closely resemble the mESC morphology” value ([2]; OK-transduced 129 MEFs, 14-21 days) was “about 2 colonies”.
